Source: the NIST ThermoML archive (doi:10.1021/je3009073)

Assay: xn = mol fraction of the nth substance listed
Details: 101 kPa, Liquid; for viscosity: Capillary tube (Ostwald / Ubbelohde) method; for mass density: Pycnometric method

CC(O)C(=O)[O-].[NH3+]CCO (stereo unspecified) [2-hydroxyethylammonium lactate] + O
Details	mass density [kg/m3]	viscosity [mPa·s]
303.15 K, x2 = 0	1226.1	11341
303.15 K, x2 = 0.116	1225.3	6523.5
303.15 K, x2 = 0.2026	1223	3828.7
303.15 K, x2 = 0.3045	1220	2137.9
303.15 K, x2 = 0.4043	1216.5	1051
303.15 K, x2 = 0.5027	1210.1	498.98
303.15 K, x2 = 0.6023	1203.2	212
303.15 K, x2 = 0.7016	1190.3	74.69
303.15 K, x2 = 0.8022	1167.2	22.28
303.15 K, x2 = 0.9007	1121	5.19
303.15 K, x2 = 0.9501	1076	2.24
308.15 K, x2 = 0	1223.1	6699.9
308.15 K, x2 = 0.116	1222.2	3975.1
308.15 K, x2 = 0.2026	1219.9	2401.1
308.15 K, x2 = 0.3045	1216.9	1372.6
308.15 K, x2 = 0.4043	1213.4	675.18
308.15 K, x2 = 0.5027	1206.9	343.45
308.15 K, x2 = 0.6023	1200.2	156.6
308.15 K, x2 = 0.7016	1187.2	56.32
308.15 K, x2 = 0.8022	1164.2	18.03
308.15 K, x2 = 0.9007	1118.2	4.46
308.15 K, x2 = 0.9501	1073.5	1.97
313.15 K, x2 = 0	1220.4	4144.6
313.15 K, x2 = 0.116	1219.5	2468.4
313.15 K, x2 = 0.2026	1217.1	1570.4
313.15 K, x2 = 0.3045	1214.1	900.49
313.15 K, x2 = 0.4043	1210.6	458.18
313.15 K, x2 = 0.5027	1204.1	243.72
313.15 K, x2 = 0.6023	1197.3	109.99
313.15 K, x2 = 0.7016	1184.3	43.42
313.15 K, x2 = 0.8022	1161.5	14.62
313.15 K, x2 = 0.9007	1115.7	3.83
313.15 K, x2 = 0.9501	1071.2	1.74
318.15 K, x2 = 0	1217.4	2653.8
318.15 K, x2 = 0.116	1216.3	1615.5
318.15 K, x2 = 0.2026	1213.9	1047.4
318.15 K, x2 = 0.3045	1211	601.07
318.15 K, x2 = 0.4043	1207.6	321.24
318.15 K, x2 = 0.5027	1201	174.88
318.15 K, x2 = 0.6023	1194.2	83.91
318.15 K, x2 = 0.7016	1181.2	34.39
318.15 K, x2 = 0.8022	1158.4	11.85
318.15 K, x2 = 0.9007	1112.7	3.35
318.15 K, x2 = 0.9501	1068.4	1.57
323.15 K, x2 = 0	1214.9	1733.6
323.15 K, x2 = 0.116	1213.7	1084.5
323.15 K, x2 = 0.2026	1211.3	717.58
323.15 K, x2 = 0.3045	1208.3	418.69
323.15 K, x2 = 0.4043	1204.9	232.51
323.15 K, x2 = 0.5027	1198.1	–
323.15 K, x2 = 0.6023	1191.5	64.89
323.15 K, x2 = 0.7016	1178.4	27.88
323.15 K, x2 = 0.8022	1155.7	9.96
323.15 K, x2 = 0.9007	1110.1	2.94
323.15 K, x2 = 0.9501	1065.8	1.41
328.15 K, x2 = 0	1212	1182.5
328.15 K, x2 = 0.116	1210.6	742.12
328.15 K, x2 = 0.2026	1208.1	478.37
328.15 K, x2 = 0.3045	1205.3	299.81
328.15 K, x2 = 0.4043	1201.7	173.38
328.15 K, x2 = 0.5027	1195.1	99.46
328.15 K, x2 = 0.6023	1188.4	50.52
328.15 K, x2 = 0.7016	1175.3	22.65
328.15 K, x2 = 0.8022	1152.6	8.43
328.15 K, x2 = 0.9007	1107	2.61
328.15 K, x2 = 0.9501	1063	1.25
